Laboratory results: patent publication US12630524B2, “Pleuromutilin in derivatives for treating viral infections” (ARIVA MED GMBH, priority 2020, dated 2026)
In brackets after ≈: the same amount, converted by molar mass. Like-named read-outs stand apart in the source and are kept apart here.

Key:
[1] = tested on: Staphylococcus aureus cfr (+); test: Broth microdilution MIC (CLSI)
[2] = tested on: Staphylococcus aureus vga(A) (+); test: Broth microdilution MIC (CLSI)
[3] = tested on: Staphylococcus aureus ATCC49951; test: Broth microdilution MIC (CLSI)
[4] = tested on: Streptococcus pneumoniae ATCC49619; test: Broth microdilution MIC (CLSI)
[5] = tested on: Streptococcus agalactiae lsa(E); test: Broth microdilution MIC (CLSI)
[6] = Metabolic stability in primary mouse hepatocytes; conditions: 1 μg/mL, 4 hours, 37° C.
[7] = Metabolic stability in primary human hepatocytes; conditions: 1 μg/mL, 4 hours, 37° C.
in vitro [8] = conditions: human
[9] = Cell viability of uninfected HEp2 drug control wells (XTT), RSVA2 assay; format: cell-based, human; conditions: human, HEp2 cells (uninfected drug control wells); HEp2 cells, RSVA2 assay; read-out: TC50
HEp2 cells = test: as above; format: cell-based, human; conditions: HEp2
[10] = tested on: respiratory syncytial virus (RSV ALONG); test: Anti-RSV cytoprotection assay, strain RSV ALONG; format: cell-based
[11] = Cellular toxicity to HEp2 cells, RSV ALONG / RSV B18537 assays; format: cell-based; conditions: human, RSV ALONG table, read-out: TC50 (the source's name)
[12] = tested on: respiratory syncytial virus (RSV B18537); test: Anti-RSV cytoprotection assay, strain RSV B18537; format: cell-based
MRC-5 cells = conditions: for cytotoxic effect on the viability of the cell control: MRC-5
[13] = tested on: Measles virus strain Edmonston; test: microbe, parasite or virus in culture; format: cell-based; conditions: for EC50: Measles morbillivirus, HeLa
in vitro [14] = conditions: human; remark: listed apart in the source
[15] = tested on: human respiratory syncytial virus (strain RSVA2); test: Anti-RSV cytoprotection assay (strain RSVA2); format: cell-based; conditions: for reduction of viral CPE: HEp2 / RSVA2; for EC50: human respiratory syncytial virus, HEp-2, 144 h, HEp2 cells infected with RSVA2, 6 days post infection, XTT
[16] = tested on: alpha coronavirus 229E (HCoV-229E or CoV229E); test: Anti-coronavirus cytoprotection assay (inhibition of virus-induced CPE); format: cell-based, human corona virus (CoV229E); conditions: for reduction of viral CPE: MRC-5 / CoV229E; for EC50: Human coronavirus 229E, MRC5, 144 h
Protocol: Objective: The assay measured the inhibition of virus-induced cytopathic effects (CPE) and cell viability following alpha coronavirus 229E (HCoV-229E or CoV229E) in MRC-5 cells 6 days post infections with the virus by various concentrations of the investigated compounds.
Following incubation at 37° C. and at 5% CO2 for 6 days, cell viability was measured by XTT tetrazolium dye staining. The optical density of the cell culture plate was determined spectrophotometrically at 450 and 650 nm. Percent reduction of the virus-infected cells and the percent cell viability of uninfected drug control wells were calculated to determine the effective concentration at which 50% of cytopathic effect was inhibited (EC50) and the cytotoxic concentration (TC50) using four parameter curve fit analysis. The antiviral compound Remdesivir served as positive control.

[17] = tested on: vesicular stomatitis virus (VSV); conditions: cited from earlier work
[18] = tested on: influenza A virus strain (PR8); conditions: influenza A PR8, concentration of 2 mg/mL; cited from earlier work
polio virus = conditions: cited from earlier work
[19] = tested on: herpes simplex type 1 (HSV-1) virus; conditions: cited from earlier work
HeLa cells = test: Cellular toxicity to HeLa cells, measles assay; conditions: Ribavirin in μg/mL
[20] = tested on: influenza A virus, porcine reproductive and respiratory syndrome virus (PRRSV) type 1 and 2; conditions: viral up-take assay 4 hours post inoculation, WO 2009/106839; cited from earlier work
[21] = Staphylococcus aureus cfr (+) (n = 2), Lefamulin resistant
[22] = Staphylococcus aureus vga(A) (+), Lefamulin resistant
[23] = Streptococcus agalactiae lsa(E) (n = 2), Lefamulin resistant
[24] = Staphylococcus aureus, ATCC49951
[25] = MRC-5 cells infected with CoV229E, 6 days post infection, XTT, read-out: EC50

12-epi-12-desvinyl-14-O-[(azepan-4-ylsulfanyl)-acetyl]-12-((E)-2-pyridin-3-yl-ethenyl) mutilin hydrochloride [Example 154, reference compound]
MIC [1, 21]: 0.5 to 4 µg/mL | MIC [2, 22]: 2 to 4 µg/mL | MIC ([3]; Staphylococcus aureus ATCC49951, CAMHB): ≤0.03 µg/mL | MIC [4]: ≤0.03 µg/mL | MIC [5, 23]: 4 to 8 µg/mL

Cc1nccnc1/C=C/[C@@]1(C)C[C@@H](OC(=O)CSC2CCNCC2)[C@]2(C)[C@H](C)CC[C@]3(CCC(=O)[C@H]32)[C@@H](C)[C@@H]1O [BC 9842, 12-epi-12-desvinyl-14-O-[(Piperidin-4-ylsulfanyl]-acetyl]-12-[2-(3-methyl-pyrazin-2-yl)-ethenyl]-mutilin]
MIC ([1]; Staphylococcus aureus): 1 to 2 µg/mL (≈ 1.75 to 3.51 µM) | MIC [1, 21]: ≤ 4 µg/mL | Metabolic stability against primary hepatocytes [% parent compound] [6]: > 60% | Metabolic stability against primary hepatocytes [% parent compound] ([6]; listed as BC-9842): > 60% | Metabolic stability against primary hepatocytes [% parent compound] ([6]; listed as BC-¬9842): 63.8% | Metabolic stability against primary hepatocytes [% parent compound] [7]: > 20% | Metabolic stability against primary hepatocytes [% parent compound] ([7]; listed as BC-9842): > 20% | Metabolic stability against primary hepatocytes [% parent compound] ([7]; listed as BC-¬9842): 24.7% | MIC ([2]; Staphylococcus aureus): 4 µg/mL (≈ 7.02 µM) | MIC [2, 22]: ≤ 4 µg/mL | MIC [3, 24]: ≤ 0.03 µg/mL | CC50 (in vitro [8]): 24.1 µM | CC50 at 6 days [9]: 22.4 µM | cytotoxic effect on the viability of the cell control (HEp2 cells; 5 μM): no cytotoxic effect | cytotoxic effect on the viability of the cell control (HEp2 cells; 10 μM): no cytotoxic effect | cytotoxic effect on the viability of the cell control (HEp2 cells; 50 μM): cytotoxic effect | EC50 ([10]; human respiratory syncytial virus, HEp-2): > 22400 nM | CC50 [11]: 22.4 µM | MIC [4]: ≤ 0.03 µg/mL | EC50 ([12]; human respiratory syncytial virus, HEp-2, HEp2 cells infected with RSV B18537, MOI 0.001): 6.77 µM | cytotoxic effect on the viability of the cell control (MRC-5 cells; 5 μM): no cytotoxic effect | cytotoxic effect on the viability of the cell control (MRC-5 cells; 10 μM): no cytotoxic effect | cytotoxic effect on the viability of the cell control (MRC-5 cells; 50 μM): cytotoxic effect | reduction of viral CPE ([13]; 10 μM, HeLa / Measles virus): 69% | EC50 [13]: 5.36 µM | MIC ([5]; Streptococcus agalactiae): 0.5 to 1 µg/mL (≈ 0.877 to 1.75 µM) | MIC [5, 23]: ≤ 4 µg/mL | CC50 at 6 days (in vitro [14]): 22.4 µM | reduction of viral CPE ([15]; 5 μM): 52.85% | reduction of viral CPE ([15]; 10 μM): 69.33% | EC50 [15]: 4.58 µM | reduction of viral CPE ([16]; 5 μM): 100% | reduction of viral CPE ([16]; 10 μM): 100% | EC50 [16, 25]: 1.92 µM

C=C[C@]1(C)C[C@@H](OC(=O)CS[C@@H]2CC[C@@H](N)C[C@H]2O)[C@]2(C)[C@H](C)CC[C@]3(CCC(=O)[C@H]32)[C@@H](C)[C@@H]1O [Lefamulin, reference compound]
MIC ([1]; Staphylococcus aureus): 16 µg/mL (≈ 31.5 µM) | MIC ([2]; Staphylococcus aureus): 8 µg/mL (≈ 15.8 µM) | MIC [3, 24]: ≤ 0.03 µg/mL | MIC [4]: ≤ 0.03 µg/mL | MIC ([5]; Streptococcus agalactiae): 16 µg/mL (≈ 31.5 µM)

C=C[C@]1(C)C[C@@H](OC(=O)CO)[C@]2(C)[C@H](C)CC[C@]3(CCC(=O)[C@H]32)[C@@H](C)[C@@H]1O [Pleuromutilin]
activity against vesicular stomatitis virus [17]: activity | antiviral activity [18]: antiviral activity | antiviral activity (polio virus): did not show antiviral activity | CPE50 (concentration conferring 50% protection of the cytopathic effect induced by HSV-1) [19]: 15 µg/mL | EC50 ([19]; read-out: CPE50 (concentration conferring 50% protection of the cytopathic effect induced by HSV-1)): 40 µM

CCC(CC)COC(=O)[C@H](C)N[P@](=O)(OC[C@H]1O[C@@](C#N)(c2ccc3c(N)ncnn23)[C@H](O)[C@@H]1O)Oc1ccccc1 [Remdesivir, reference compound]
CC50 (MRC-5 cells; human): > 5 µM | EC50 [16]: 0.11 µM

NC(=O)c1ncn([C@@H]2O[C@H](CO)[C@@H](O)[C@H]2O)n1 [Ribavirin, reference compound]
EC50 [13]: 1.88 µg/mL | TC50 (HeLa cells): 21.6 µg/mL (≈ 88.4 µM)

C=C[C@]1(C)C[C@@H](OC(=O)CSCCN(CC)CC)[C@]2(C)[C@H](C)CC[C@]3(CCC(=O)[C@H]32)[C@@H](C)[C@@H]1O [Tiamulin, reference compound]
viability (cell control) (HEp2 cells; 10 μM): 84% | viability (cell control) (HEp2 cells; 50 μM): 70.0% | cytotoxic effect on the viability of the cell control (MRC-5 cells; 10 μM): no cytotoxic effect | cytotoxic effect on the viability of the cell control (MRC-5 cells; 50 μM): cytotoxic effect | reduction of viral CPE ([15]; 10 μM): 16.76% | reduction of viral CPE ([15]; 50 μM): 43.28% | EC50 [15]: > 67.9 µM | reduction of viral CPE ([16]; 10 μM): 10.53% | reduction of viral CPE ([16]; 50 μM): 81.68% | EC50 [16, 25]: 24.4 µM

C=C[C@]1(C)C[C@@H](OC(=O)CSC(C)(C)CNC(=O)[C@H](N)C(C)C)[C@]2(C)[C@H](C)CC[C@]3(CCC(=O)[C@H]32)[C@@H](C)[C@@H]1O [Valnemulin]
antiviral activity [20]: did not exhibit antiviral activity

TMC353121 [reference compound]
EC50 ([10]; RSV A strain (RSV ALONG), HEp2, text, read-out: EC50): 0.01 nM | EC50 ([12]; RSV B strain (RSV B18537), HEp2, text): 1e-05 µM
